The test concerns the target T1, p53 Y220C (Homo sapiens, UniProt P04637, Y220C).
T1 construct: The recombinant protein was a truncation mutant containing only amino acids 94-312 of p53; made in house; host or cells: E. coli
In words: In vitro DNA binding activity assay (HTRF / TR-FRET): stabilization of p53 Y220C and increase of its DNA binding activity. The test is classed as biochemical. The conditions noted are these: recombinant His-tagged p53 Y220C DNA binding domain (aa 94-312), biotin-labeled consensus DNA, incubated at 27° C. or 29° C. for 60 min. An outline of the steps: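 Compound effect on DNA binding of recombinant His-p53 Y220C (E. coli) to biotin-labeled consensus DNA, expressed as SC150, the concentration giving 50% increase versus untreated. Serial 3-fold DMSO dilutions of 4.5 mM stocks; room-temperature steps of 15 then 20 min.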
For orientation: TR-FRET usually uses a lanthanide donor and a delayed reading to cut background.

T1 sequence (P04637 94-312, change not shown): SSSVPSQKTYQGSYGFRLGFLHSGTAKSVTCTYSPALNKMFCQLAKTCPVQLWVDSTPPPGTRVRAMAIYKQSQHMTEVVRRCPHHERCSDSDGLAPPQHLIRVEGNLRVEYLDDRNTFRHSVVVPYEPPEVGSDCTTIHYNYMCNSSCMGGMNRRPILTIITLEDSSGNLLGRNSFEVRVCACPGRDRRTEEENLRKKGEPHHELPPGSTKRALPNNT

Take `CCN1CC[C@H](Nc2cccc3c2cc(C#CCNc2ccc(C(=O)NC)cc2OC)n3CC(F)(F)F)[C@H](F)C1` [Compound 1075A, 4-{[3-(4-{[(3R,4S)-1-ethyl-3-fluoropiperidin-4-yl]amino}-1-(2,2,2-trifluoroethyl)-1H-indol-2-yl)prop-2-yn-1-yl]amino}-3-methoxy-N-methvlbenzamide]: the “SC150 (concentration of the compound required to increase the DNA binding activity by 50%)” value is “+ (+ = 0 μM ≤ SC150 < 0.05 μM)”.

For the origin of these results see patent US12428406B2 (PMV Pharmaceuticals, Inc., priority 2019, dated 2025).
